In patent US10188107B2 (Heinrich Heine Universität Düsseldorf, priority 2013, dated 2019):
pIC50: −log10 of the molar value.

Legend:
[1] = test system: PEP carboxylase from C4 plant Amaranthus viridis; details: cited from earlier work
[2] = target: T1, PEP carboxylase from F. trinervia (C4 PEPC) (Flaveria trinervia, UniProt P30694); test: Spectrophotometric coupled assay with malate dehydrogenase, C4 PEP carboxylase; assay type: biochemical; details: range of concentrations, triplicate; C3 PEPC activity compared at the C4 IC50 concentration (figure legend)
T1 construct: histidine tag; made in house; host or cells: E. coli
T1 sequence (P30694 1-966): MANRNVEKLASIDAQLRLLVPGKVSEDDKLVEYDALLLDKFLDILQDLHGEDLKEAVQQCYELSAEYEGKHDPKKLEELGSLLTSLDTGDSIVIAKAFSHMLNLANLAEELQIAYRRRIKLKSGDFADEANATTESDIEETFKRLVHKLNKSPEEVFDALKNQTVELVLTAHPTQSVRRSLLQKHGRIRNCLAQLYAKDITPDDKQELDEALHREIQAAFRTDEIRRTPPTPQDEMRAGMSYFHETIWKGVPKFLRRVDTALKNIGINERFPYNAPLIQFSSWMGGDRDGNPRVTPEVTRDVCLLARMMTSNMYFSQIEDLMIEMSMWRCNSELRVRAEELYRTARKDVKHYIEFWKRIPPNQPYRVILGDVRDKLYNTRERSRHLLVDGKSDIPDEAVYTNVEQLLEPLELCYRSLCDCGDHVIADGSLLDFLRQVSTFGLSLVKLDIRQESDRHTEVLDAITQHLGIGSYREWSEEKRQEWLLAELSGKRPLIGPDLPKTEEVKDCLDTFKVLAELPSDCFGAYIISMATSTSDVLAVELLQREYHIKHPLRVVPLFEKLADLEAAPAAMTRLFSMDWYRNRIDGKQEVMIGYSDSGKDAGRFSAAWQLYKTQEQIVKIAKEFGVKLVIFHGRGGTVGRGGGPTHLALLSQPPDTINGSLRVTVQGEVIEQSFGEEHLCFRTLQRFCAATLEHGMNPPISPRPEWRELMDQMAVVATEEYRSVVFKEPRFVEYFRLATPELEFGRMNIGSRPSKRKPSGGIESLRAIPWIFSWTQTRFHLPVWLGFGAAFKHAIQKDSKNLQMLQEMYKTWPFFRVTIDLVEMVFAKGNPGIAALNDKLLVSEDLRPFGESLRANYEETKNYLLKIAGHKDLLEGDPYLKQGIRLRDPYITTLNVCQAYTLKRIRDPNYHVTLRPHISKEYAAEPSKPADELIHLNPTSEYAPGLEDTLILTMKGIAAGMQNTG
Source text: How to determine the activity of a PEP carboxylase is well known in the art. E.g, the formation of oxaloacetate can be determined spectrophotometrically, e.g., in a malate dehydrogenase coupled system. The reaction velocity can be measured as a decrease in A340 resulting from the oxidation of NADH.
Inhibition of purified PEP carboxylases from F. pringlei and F. trinervia by compounds selected from the VDS was monitored by a spectrophotometric coupled assay with malate dehydrogenase which reduces the oxaloacetate formed by PEP carboxylase to malate. The simultaneous oxidation of NADH is followed at 340 nm with standard optical equipment. The concentration of the inhibitors selected from the VDS was varied in the coupled assay to determine the half maximal inhibitory concentration (IC50).

[3] = target: pyruvate phosphate dikinase (PPDK); details: isolated enzyme; read-out: half maximal inhibitory concentration (IC50); cited from earlier work

Compound	inhibition of PEP carboxylase from Amaranthus viridis [1]	Inhibition of a C4-PEPC [2]	other results
O=c1c(O)c(-c2cc(O)c(O)c(O)c2)oc2cc(O)cc(O)c12 [myricetin]	inhibited	–	–
O=c1c(O)c(-c2ccc(O)c(O)c2)oc2cc(O)ccc12 [fisetin]	inhibited	–	–
O=c1c(O)c(-c2ccc(O)cc2O)oc2cc(O)cc(O)c12 [morin]	inhibited	–	–
O=C(O)c1cc(/C=C/c2cc(O)ccc2O)ccc1O [1-(3′-carboxy-4′-hydroxyphenyl)-2-(2,5-dihydroxyphenl(ethene)]	–	Selective inhibition	–
catechin	–	Inhibition	–
O=c1c(O)c(-c2ccc(O)c(O)c2)oc2cc(O)cc(O)c12 [quercetin]	inhibited	–	–
O=c1c(O)c(-c2ccc(O)cc2)oc2cc(O)cc(O)c12 [kaempferol]	inhibited	–	–
C/C=C(\C)c1cc(O)c(C)c2c1Oc1cc(O)cc(C)c1C(=O)O2 [unguinol]	–	–	pIC50 [3]: 4.40
COc1cc2ncc(-c3ccc(O)c(O)c3)nc2cc1OC [2-(3,4-Dihydroxyphenyl)-6,7-dimethoxyquinoxaline]	–	Inhibition	–
baicalein/baicalin	inhibited	–	–
O=C(/C=C/c1ccc(O)c(O)c1)c1ccc(O)cc1O [butein]	–	Selective inhibition	–
